These results are taken from ChEMBL document CHEMBL5705890, “Antitumor activity of an allosteric inhibitor of centromere-associated protein-E” (Proc Natl Acad Sci U S A, 2010).

Data set [1] deals with Centromere-associated protein E (Homo sapiens) (UniProt Q02224). Kind of data set: Competitive-like binding affinity to C-terminal 6-his-tagged CENP-E (2 to 340 residues)(unknown origin) expressed in Escherichia coli BL21(DE3) in presence of ATP.
The target is the same in data set [2]. Kind of data set: Binding affinity to C-terminal 6-his-tagged CENP-E (2 to 340 residues)(unknown origin) expressed in Escherichia coli BL21(DE3) photo-exposed for 30 mins by LC-MS analysis.
Data set [3] relates to CC(C)Oc1ccc(C(=O)N[C@H](CNC(=O)CN(C)C)Cc2ccc(-c3cn4cccc([C@H](C)O)c4n3)cc2)cc1Cl. Conditions: Canis lupus familiaris.
Description: Binding affinity to wild-type dog CENP-E assessed as Km in presence of ATP
Data set [4] has the same test system. Conditions: Canis lupus familiaris. The source holds these as a separate data set.
Description: Binding affinity to wild-type dog CENP-E assessed as Km in presence of microtubule
For data set [5] the test system is unchanged. Conditions: Canis lupus familiaris. The source holds these as a separate data set.
Description: Binding affinity to wild-type dog CENP-E assessed as catalytic constant
For data set [6] the test system is unchanged. Conditions: Mus musculus.
Description: Binding affinity to wild-type mouse CENP-E assessed as Km in presence of microtubule
Data set [7] shares this test system. Conditions: Mus musculus. The source holds these as a separate data set.
Description: Binding affinity to wild-type mouse CENP-E assessed as catalytic constant
Data set [8] has the same test system. The following applies: Mus musculus. The source holds these as a separate data set.
Description: Binding affinity to wild-type mouse CENP-E assessed as Km in presence of ATP
In data set [9] the target is Centromere-associated protein E (Homo sapiens) (UniProt Q02224).
Description: Binding affinity to C-terminal 6-his-tagged CENP-E (2 to 340 residues)(unknown origin) expressed in Escherichia coli BL21(DE3) assessed as compound dissociation by measuring t1/2
For data set [10], the system named is COLO 205. As to the kind of experiment: Induction of morphological change in human COLO 205 cells xenografted in mouse assessed as appearance of scattered apoptotic bodies in tumor at 125 mg/kg measured after 24 hrs of single administration by H and E staining based analysis. The format is functional, organism-based.
Data set [11] concerns COLO 205. Kind of data set: Effect on cell cycle distribution in human COLO 205 cells xenografted in mouse assessed as increase in ratio of 4n to 2n nuclei measured after 24 hrs of single administration by flow cytometry. Conditions: dose <= 125.0 mg/kg. The format is functional, cell-based. Background: In xenograft studies the graft and the host belong to different species.

The species named for data set [12] is Homo sapiens.
Description: Binding affinity to human CENP-E T183A/K184T mutant assessed as Km in presence of microtubule
For data set [13], the target named is Centromere protein E (Canis lupus familiaris) (UniProt A0A8P0P634). As to the kind of experiment: Binding affinity to wild-type dog CENP-E assessed as ATPase activity.
Chain of Centromere protein E (Canis lupus familiaris) (A0A8P0P634 as listed by the source): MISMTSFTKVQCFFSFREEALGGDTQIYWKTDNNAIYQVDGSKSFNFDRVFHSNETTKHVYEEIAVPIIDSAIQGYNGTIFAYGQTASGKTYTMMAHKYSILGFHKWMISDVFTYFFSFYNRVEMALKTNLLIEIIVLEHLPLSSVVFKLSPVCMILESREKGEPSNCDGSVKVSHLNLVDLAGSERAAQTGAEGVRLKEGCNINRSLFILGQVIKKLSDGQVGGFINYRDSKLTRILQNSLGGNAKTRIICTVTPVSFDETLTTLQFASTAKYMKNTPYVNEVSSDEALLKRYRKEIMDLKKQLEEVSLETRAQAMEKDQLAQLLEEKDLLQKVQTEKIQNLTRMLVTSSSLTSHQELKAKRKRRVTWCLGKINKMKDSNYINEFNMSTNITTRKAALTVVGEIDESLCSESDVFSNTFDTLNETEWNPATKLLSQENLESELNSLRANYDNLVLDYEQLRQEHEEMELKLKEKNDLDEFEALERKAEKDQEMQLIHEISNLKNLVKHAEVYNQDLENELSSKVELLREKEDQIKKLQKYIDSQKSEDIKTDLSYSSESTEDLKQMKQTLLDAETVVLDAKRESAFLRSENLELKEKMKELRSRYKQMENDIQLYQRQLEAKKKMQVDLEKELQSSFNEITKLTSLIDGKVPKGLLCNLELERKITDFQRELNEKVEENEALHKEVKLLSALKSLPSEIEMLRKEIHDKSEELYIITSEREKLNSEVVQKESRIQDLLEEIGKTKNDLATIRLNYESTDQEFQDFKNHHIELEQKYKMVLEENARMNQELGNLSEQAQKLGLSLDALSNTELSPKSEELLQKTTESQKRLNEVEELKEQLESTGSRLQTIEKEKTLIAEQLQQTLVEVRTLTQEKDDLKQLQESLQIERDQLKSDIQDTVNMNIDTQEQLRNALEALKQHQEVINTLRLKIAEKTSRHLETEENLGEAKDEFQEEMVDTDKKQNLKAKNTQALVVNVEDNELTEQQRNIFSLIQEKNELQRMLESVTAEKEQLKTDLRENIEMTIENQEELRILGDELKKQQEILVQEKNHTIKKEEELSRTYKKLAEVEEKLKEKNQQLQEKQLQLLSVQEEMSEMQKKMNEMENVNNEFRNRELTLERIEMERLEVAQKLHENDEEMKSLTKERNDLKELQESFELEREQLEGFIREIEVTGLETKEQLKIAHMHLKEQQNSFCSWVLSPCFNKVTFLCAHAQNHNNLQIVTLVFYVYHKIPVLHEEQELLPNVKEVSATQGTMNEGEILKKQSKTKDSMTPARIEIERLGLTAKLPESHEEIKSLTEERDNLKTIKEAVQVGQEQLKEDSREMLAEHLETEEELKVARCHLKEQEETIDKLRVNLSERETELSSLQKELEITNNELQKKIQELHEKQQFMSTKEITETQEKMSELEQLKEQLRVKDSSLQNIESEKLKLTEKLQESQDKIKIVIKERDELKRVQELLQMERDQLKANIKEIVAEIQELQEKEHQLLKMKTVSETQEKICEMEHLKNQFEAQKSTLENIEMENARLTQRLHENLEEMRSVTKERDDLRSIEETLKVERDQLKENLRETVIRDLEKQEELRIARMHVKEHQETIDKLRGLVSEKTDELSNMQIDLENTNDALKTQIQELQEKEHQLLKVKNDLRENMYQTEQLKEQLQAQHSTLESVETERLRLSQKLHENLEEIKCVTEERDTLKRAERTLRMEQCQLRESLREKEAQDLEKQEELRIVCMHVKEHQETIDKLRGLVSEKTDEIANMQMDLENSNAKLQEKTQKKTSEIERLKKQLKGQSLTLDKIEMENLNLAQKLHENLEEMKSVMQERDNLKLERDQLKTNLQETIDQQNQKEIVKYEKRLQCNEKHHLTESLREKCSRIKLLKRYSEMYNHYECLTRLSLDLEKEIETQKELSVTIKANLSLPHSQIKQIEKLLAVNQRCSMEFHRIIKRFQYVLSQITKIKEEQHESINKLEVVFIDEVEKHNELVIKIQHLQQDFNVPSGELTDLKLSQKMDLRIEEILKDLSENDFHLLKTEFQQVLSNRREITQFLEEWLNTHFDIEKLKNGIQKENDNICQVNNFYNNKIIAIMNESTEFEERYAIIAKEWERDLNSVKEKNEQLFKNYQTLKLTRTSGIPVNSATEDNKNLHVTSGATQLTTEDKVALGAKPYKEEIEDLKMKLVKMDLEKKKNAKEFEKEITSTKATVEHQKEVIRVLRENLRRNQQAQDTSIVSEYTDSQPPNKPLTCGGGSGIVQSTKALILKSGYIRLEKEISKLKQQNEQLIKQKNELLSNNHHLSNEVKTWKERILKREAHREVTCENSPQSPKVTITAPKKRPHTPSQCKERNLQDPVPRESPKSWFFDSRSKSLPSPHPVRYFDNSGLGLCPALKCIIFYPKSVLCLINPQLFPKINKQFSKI
The species named for data set [14] is Homo sapiens. As to the kind of experiment: Binding affinity to human CENP-E T183A/K184T mutant assessed as ATPase activity.
Data set [15] deals with COLO 205. Kind of data set: Antitumor activity against human COLO 205 cells xenografted in mouse assessed as reduction in tumor volume administered intraperitoneally three doses daily on 2 consecutive weeks. The following applies: dose 62.5-125 mg/kg, route ip, time 2.0 weeks. The format is functional, cell-based.
The species entered for data set [16] is Homo sapiens. This is another data set of the same source.
Description: Binding affinity to human CENP-E T183A/K184T mutant assessed as catalytic constant
The test system of data set [17] is COLO 205. As to the kind of experiment: Induction of morphological change in human COLO 205 cells xenografted in mouse assessed as appearance of mitotic figures in tumor at 125 mg/kg measured after 24 hrs of single administration by H and E staining based analysis. It counts as functional, organism-based.
The species named for data set [18] is Homo sapiens. This is another data set of the same source.
Description: Binding affinity to human CENP-E T183A/K184T mutant assessed as Km in presence of ATP
Data set [19] deals with Centromere-associated protein E (Homo sapiens) (UniProt Q02224). As to the kind of experiment: Inhibition of CENP-E motor domain ATPase in human HCC1954 cells assessed as increase in Ser10 phosphorylated histone H3 level by Western blot analysis. The format is cell-based.
For data set [20], the system named is HCC1954. Kind of data set: Induction of morphological change in human HCC1954 cells expressing GFP-histone 2B assessed as bipolar spindle formation of chromosomes at 0.2 ug/ml measured for 5 days on every 15 mins by PI staining based analysis. It counts as functional, cell-based. The following applies: dose 0.2 µg/ml, time 5.0 day.
The target of data set [21] is Centromere-associated protein E (Homo sapiens) (UniProt Q02224). As to the kind of experiment: Inhibition of CENP-E motor domain ATPase in human HCC1954 cells expressing GFP-histone 2B assessed as increase in mitotic index at 0.2 ug/ml measured for 5 days on every 15 mins by PI staining based analysis. It counts as cell-based. The following applies: dose 0.2 µg/ml, time 5.0 day.

Data set [22] has the same target. Kind of data set: Inhibition of CENP-E motor domain ATPase in human HCC1954 cells assessed as increase in 4n DNA content at 325 nM measured for 144 hrs by flow cytometry. The format is cell-based. A general note: A flow cytometer gives signals particle by particle.
Data set [23] has as its system HCC1954. As to the kind of experiment: Induction of apoptosis in human HCC1954 cells assessed as increase in PARP cleavage measured for 145 hrs by Western blot analysis. The format is functional, cell-based. For orientation: Immunoblotting shows a protein as a band on a membrane.
Another data set concerns SK-OV-3. As to the kind of experiment: Induction of morphological change in human SK-OV-3 cells assessed as increase in mitotic cells with bipolar spindle formation of chromosomes at 50 nM measured for 24 to 32 hrs by microscopic analysis. It counts as functional, cell-based. Conditions: time 24-32 hrs.
For data set [24], the target named is Centromere-associated protein E (Homo sapiens) (UniProt Q02224). Kind of data set: Uncompetitive-like binding affinity to C-terminal 6-his-tagged CENP-E (2 to 340 residues)(unknown origin) expressed in Escherichia coli BL21(DE3) in presence of ATP.
For data set [25] the target is unchanged. As to the kind of experiment: Inhibition of CENP-E motor domain ATPase in human HCC1954 cells assessed as increase in cyclin B level by Western blot analysis. It counts as cell-based.

Active and inactive are the calls of the source. The calls are words filed in the database; no cut-off is given here.

Chain of Centromere-associated protein E (Homo sapiens) (Q02224 whole entry, the tested form may be a part): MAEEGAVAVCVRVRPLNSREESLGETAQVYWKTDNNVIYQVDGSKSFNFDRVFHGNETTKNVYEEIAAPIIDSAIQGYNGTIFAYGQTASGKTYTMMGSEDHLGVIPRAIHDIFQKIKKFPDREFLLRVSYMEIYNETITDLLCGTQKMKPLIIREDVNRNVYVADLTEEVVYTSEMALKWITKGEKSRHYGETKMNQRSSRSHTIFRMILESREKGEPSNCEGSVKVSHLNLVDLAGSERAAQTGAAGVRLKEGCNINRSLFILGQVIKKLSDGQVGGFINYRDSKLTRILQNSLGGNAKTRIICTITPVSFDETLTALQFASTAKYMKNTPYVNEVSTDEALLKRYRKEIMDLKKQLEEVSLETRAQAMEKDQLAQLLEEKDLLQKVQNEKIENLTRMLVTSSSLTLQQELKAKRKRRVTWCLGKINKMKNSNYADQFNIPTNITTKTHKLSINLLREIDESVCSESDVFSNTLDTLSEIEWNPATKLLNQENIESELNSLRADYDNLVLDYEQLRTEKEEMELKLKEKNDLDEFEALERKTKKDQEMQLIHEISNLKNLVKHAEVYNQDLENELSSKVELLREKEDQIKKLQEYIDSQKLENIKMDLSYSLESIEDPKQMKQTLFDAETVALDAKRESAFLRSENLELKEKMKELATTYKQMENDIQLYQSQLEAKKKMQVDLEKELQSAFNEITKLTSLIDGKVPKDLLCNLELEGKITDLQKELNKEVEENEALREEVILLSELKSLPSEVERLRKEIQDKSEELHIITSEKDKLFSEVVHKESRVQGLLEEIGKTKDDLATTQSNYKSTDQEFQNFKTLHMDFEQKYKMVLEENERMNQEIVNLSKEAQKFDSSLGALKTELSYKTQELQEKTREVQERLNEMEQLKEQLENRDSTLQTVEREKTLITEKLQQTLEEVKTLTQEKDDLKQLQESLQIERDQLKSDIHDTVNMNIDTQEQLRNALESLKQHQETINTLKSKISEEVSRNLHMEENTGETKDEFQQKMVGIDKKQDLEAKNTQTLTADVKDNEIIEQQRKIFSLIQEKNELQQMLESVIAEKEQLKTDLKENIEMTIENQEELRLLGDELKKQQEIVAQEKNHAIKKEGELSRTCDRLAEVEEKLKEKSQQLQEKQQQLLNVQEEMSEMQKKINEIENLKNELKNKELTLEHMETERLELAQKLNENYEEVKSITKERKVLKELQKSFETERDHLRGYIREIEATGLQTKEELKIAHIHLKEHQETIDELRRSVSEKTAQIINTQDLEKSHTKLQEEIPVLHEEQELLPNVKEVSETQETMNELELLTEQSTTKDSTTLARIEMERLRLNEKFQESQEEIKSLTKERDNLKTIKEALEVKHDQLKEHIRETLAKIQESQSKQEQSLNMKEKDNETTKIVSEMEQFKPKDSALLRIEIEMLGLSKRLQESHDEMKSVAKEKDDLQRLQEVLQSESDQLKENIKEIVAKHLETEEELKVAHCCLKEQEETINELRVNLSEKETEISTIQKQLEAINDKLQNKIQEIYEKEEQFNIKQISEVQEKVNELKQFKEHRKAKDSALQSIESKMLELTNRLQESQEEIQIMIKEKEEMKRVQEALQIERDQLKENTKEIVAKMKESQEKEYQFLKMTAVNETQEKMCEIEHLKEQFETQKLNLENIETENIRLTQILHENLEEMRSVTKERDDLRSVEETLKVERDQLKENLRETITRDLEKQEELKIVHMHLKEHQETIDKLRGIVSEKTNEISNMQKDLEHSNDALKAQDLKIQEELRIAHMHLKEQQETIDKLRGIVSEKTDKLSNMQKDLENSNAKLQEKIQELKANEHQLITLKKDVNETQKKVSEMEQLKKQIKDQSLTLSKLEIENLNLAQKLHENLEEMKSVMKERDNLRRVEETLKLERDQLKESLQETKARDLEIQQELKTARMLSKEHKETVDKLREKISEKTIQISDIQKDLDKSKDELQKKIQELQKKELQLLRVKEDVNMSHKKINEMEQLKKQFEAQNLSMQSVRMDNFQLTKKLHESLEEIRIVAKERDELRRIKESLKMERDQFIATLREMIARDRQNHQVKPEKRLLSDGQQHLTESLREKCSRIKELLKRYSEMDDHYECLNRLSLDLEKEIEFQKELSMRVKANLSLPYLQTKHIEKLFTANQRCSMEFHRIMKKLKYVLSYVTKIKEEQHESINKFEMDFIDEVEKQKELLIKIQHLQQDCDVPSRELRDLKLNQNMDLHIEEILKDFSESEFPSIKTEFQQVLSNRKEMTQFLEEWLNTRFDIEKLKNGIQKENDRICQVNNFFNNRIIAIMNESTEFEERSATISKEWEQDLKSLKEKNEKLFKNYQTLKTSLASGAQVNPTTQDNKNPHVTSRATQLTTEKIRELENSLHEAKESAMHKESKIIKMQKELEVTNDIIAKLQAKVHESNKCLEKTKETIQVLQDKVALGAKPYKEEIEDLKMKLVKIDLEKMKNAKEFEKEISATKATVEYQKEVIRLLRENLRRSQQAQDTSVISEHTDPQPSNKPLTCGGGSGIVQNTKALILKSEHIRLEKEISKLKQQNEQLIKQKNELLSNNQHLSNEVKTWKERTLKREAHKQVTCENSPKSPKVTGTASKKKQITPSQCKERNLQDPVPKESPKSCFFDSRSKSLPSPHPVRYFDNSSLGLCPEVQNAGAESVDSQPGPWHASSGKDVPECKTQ

Take `CNC(=O)C(Cc1ccc(C(=O)c2ccccc2)cc1)NC(=O)c1ccc(OC(C)C)c(Cl)c1` (stereo unspecified): the alphaKi in data set [1] is 8 nM. The result in data set [2] was Active.

For “Centromere protein E (Canis lupus familiaris), A0A8P0P634”, the Michaelis-Menten constant (Km) (in general, the concentration of substrate that gives half-maximal velocity) in [3] came to 34 µM; in [4] it was 0.38 µM. Moreover, the kcat – broadly, the number of substrate molecules converted per active site and unit of time at saturation – in data set [5] worked out at 11.1 s⁻¹.

Consider “Centromere-associated protein E (Mus musculus), Q6RT24”, for which the Km in [6] came to 0.55 µM; in data set [8], 25 µM. Further, the kcat in data set [7] was found to be 10.1 s⁻¹.

`CC(C)Oc1ccc(C(=O)N[C@H](CNC(=O)CN(C)C)Cc2ccc(-c3cn4cccc([C@H](C)O)c4n3)cc2)cc1Cl` yielded a T1/2 in [9] of 10.2 h. The outcome in the data set with COLO 205 [10] and in the data set on COLO 205 [17] was Active. For the same compound, the Activity result in the data set on COLO 205 [11] was “Dose-Dependent Effect”; in data set [13] it was 0.32 s⁻¹; in the data set listed under Homo sapiens [14], 0.06 s⁻¹; in the data set on COLO 205 [15], “Dose-Dependent Effect”. Further, the Km was 1.81 µM in the data set listed under Homo sapiens [12] and 20 µM in the data set filed under Homo sapiens [18]. The catalytic constant (kcat) in the data set listed under Homo sapiens [16] was found to be 12.1 s⁻¹.

With `Cc1cccn2cc(-c3ccc(C[C@@H](CCO)NC(=O)c4ccc(OC(C)C)c(C#N)c4)cc3)nc12`, the inhibition entry in data set [19], in [21], in data set [22] and in data set [25] was “Active” throughout. Moreover, the outcome in the data set with HCC1954 [20], in the data set on HCC1954 [23] and with SK-OV-3 was Active. In addition, in data set [24], the alphaKi came to 0.25 nM.
